The values below come from patent US20140213647A1, “COMPOUND USEFUL FOR PREVENTING OR TREATING IRRITABLE BOWEL SYNDROME AND COMPOSITION INCLUDING SAME” (SK CHEMICALS CO., LTD., priority 2011, published 2014).

In assay [1] the test system is visceral hypersensitivity in colitis-induced rats. Put plainly: Suppressing effect of visceral pain in CRD (colorectal distension) model. In kind it is in vivo, Sprague-Dawley male rats. To be noted: CRD test about 1 hour after dosing. As for the experimental part:
To evaluate the suppressing effect of the separated (6E,12E)-3-hydroxytetradeca-6,12-dien-8,10-diyn-1-yl acetate on the visceral hypersensitivity, a Colorectal Distension (CRD) test that has been often used in the evaluation of drugs for IBS was conducted as follows (see J H. La et al., World J. Gastroenterol. Dec., 9(12): p 2791-2795, 2003).
250 to 300 g of Sprague-Dawley male rats (Charles River) were used for the CRD test. Two rats per one cage were reared in a room of 25° C., humidity 50%, and day-night 12:12 hours of cycle. Rats were freely provided with drink water and food, and were adapted to the room condition for 5 days, followed by inducing colitis. […]
A 2 cm-long rubber balloon was inserted into the rectum of each rat, and was filled with 37° C-warmed water in stages, from 0.1 to 1.0 ml. The appearing pain reactions of rats were recorded. The specific behaviors of CRD test animals were represented with AWR (abdominal withdrawal reflex), which was indirectly and quantitatively analyzed by AWR scores given on each behavior, and the AWR scores were used for identifying the abdominal pain reaction. […]
The presence of visceral hypersensitivity was checked in CRD rats 7 days after inducing colitis. […] Student's t-test (p<0.01 (**) or p<0.001 (***)) was used for statistical approach, and significance relative to the vehicle-administered group was detected. […]

Assay [2] has as its target T1, human-derived melanocortin MC1 receptor (Homo sapiens, UniProt Q01726).
T1 construct: expressed in transfected cells
Put plainly: Inhibiting activity against melanocortin MC1 receptor ([125I]NDP-a-MSH binding). The settings on record: cell membranes expressing human-derived melanocortin MC1 receptor, ligand [125I]NDP-a-MSH, 37° C. 120 minutes. As for the experimental part: (§1) Each of 100 μl of a modified HEPES-KOH buffer was added to each well, to which the compound (50, 500, 1500, 5000, 15000 μM) of the present invention dissolved in DMSO and a positive control, NDP-a-MSH (0.25, 0.5, 2.5, 5, 25 nM) were added in an amount of 5 μl, respectively. Thereto, each of 50 μl of a melanocortin MC1 receptor ligand, [^125l] NDP-a-MSH was added, and each of 100 μl of a modified Tris-HCl buffer having cell membranes in which a human-derived melanocortin MC1 receptor is expressed was added. After incubating at 37° C. for 120 minutes, the resultants were filtered and washed 3 times. The number of cell membranes bound with an isotope was calculated by means of β-ray measurement.

The target of assay [3] is T2, human-derived cannabinoid CB2 receptor (Homo sapiens, UniProt P34972).
T2 construct: expressed in transfected cells
Put plainly: Inhibiting activity against cannabinoid CB2 receptor ([3H]WIN-55,212-2 binding). The settings on record: cell membranes expressing human-derived cannabinoid CB2 receptor, ligand [3H]WIN-55,212-2, 37° C. 90 minutes. As for the experimental part: as §1, with “HEPES” for “HEPES-KOH”, “R(+)-WIN-55, 212-2 (0.05, 0.25,” for “NDP-a-MSH (0.25,”, “5” for “5, 25”, “cannabinoid CB2” for “melanocortin MC1”, “[^3H]WIN-55, 212-2” for “[^125l] NDP-a-MSH”, “90” for “120”

Assay [4] has as its target T3, human-derived motilin receptor (Homo sapiens, UniProt O43193).
T3 construct: expressed in transfected cells
Put plainly: Inhibiting activity against motilin receptor (radioligand binding). The settings on record: cell membranes expressing human-derived motilin receptor, 25° C. 150 minutes. As for the experimental part:
Each of 100 μl of a modified Tris-HCl buffer was added to each well, to which the compound (50, 500, 1500, 5000, 15000 μM) of the present invention dissolved in DMSO and a positive control, motilin (2.5, 5, 25, 50, 250 μM) were added in an amount of 5 μl, respectively. Thereto, each of 50 μl of a motilin receptor ligand, […] was added, and each of 100 μl of a modified Tris-HCl buffer having cell membranes in which a human-derived motilin receptor is expressed was added. After incubating at 25° C. for 150 minutes, the resultants were filtered and washed 3 times. The number of cell membranes bound with an isotope was calculated by means of β-ray measurement.

Assay [5] concerns the target T4, human-derived NK2 receptor (Homo sapiens, UniProt P21452).
T4 construct: expressed in transfected cells
T4 sequence (P21452 1-398): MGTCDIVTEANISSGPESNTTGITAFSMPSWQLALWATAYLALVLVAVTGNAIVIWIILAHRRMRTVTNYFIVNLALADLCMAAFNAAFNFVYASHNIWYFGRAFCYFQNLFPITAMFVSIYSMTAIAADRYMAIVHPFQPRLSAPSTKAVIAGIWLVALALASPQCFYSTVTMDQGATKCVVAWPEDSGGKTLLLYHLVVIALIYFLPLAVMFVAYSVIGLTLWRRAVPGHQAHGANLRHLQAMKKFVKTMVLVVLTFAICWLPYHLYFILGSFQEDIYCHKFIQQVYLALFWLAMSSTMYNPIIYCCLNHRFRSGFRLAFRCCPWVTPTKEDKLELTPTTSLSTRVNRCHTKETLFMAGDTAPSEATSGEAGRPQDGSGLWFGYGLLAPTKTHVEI
Put plainly: Inhibiting activity against NK2 receptor ([3H]SR-48968 competitive binding). To be noted: cell membranes expressing human-derived NK2 receptor, ligand [3H]SR-48968, 25° C. 90 minutes. As for the experimental part:
Each of 100 μl of a modified HEPES buffer was added to each well, to which the compound (50, 500, 1500, 5000, 15000 μM) dissolved in DMSO and a positive control, MEN-10,376 (0.5, 2.5, 5, 25, 50 μM) were added in an amount of 5 μl, respectively. Thereto, each of 50 μl of a NK2 receptor ligand, [3H]SR-48968 was added, and each of 100 μl of a modified HEPES buffer having cell membranes in which a human-derived NK2 receptor is expressed was added. After incubating with stirring (200 rpm) at 25° C. for 90 minutes, the resultants were filtered and washed 3 times.
The number of cell membranes bound with an isotope ([^3H]SR-48968) was calculated by means of […] measurement. At this time, as a test material is strongly bound with the receptor, the ligand [^3H]SR-48968 is not bound and measured values decrease (competitive bonding). The value for the well added with only the ligand was represented as “0% inhibition”, and the well having no ligand, as “100% inhibition’, and the inhibition rate was measured depending on the amount of drug concentration.

Assay [6] concerns the target T5, human-derived guanylate cyclase (Homo sapiens, UniProt Q02153).
T5 construct: made in house; host or cells: Sf9 insect cells (lysate used)
T5 sequence (Q02153 1-619): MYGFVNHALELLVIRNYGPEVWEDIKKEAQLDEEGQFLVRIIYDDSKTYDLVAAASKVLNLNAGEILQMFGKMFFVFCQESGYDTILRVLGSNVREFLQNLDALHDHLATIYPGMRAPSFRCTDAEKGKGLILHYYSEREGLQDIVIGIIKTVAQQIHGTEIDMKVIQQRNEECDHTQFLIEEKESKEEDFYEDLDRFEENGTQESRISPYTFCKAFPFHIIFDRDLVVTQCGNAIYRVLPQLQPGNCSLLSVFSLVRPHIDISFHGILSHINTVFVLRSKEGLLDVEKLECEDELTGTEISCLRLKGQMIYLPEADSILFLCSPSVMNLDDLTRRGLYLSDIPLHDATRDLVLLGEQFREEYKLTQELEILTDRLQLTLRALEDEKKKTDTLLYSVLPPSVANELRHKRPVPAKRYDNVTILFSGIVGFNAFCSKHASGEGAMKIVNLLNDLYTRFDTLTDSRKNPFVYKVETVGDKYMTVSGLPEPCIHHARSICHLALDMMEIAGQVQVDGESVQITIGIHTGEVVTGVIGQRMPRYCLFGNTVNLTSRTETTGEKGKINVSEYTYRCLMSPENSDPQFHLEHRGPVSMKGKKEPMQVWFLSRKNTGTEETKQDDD
T5 sequence (Q02108 1-690 partner): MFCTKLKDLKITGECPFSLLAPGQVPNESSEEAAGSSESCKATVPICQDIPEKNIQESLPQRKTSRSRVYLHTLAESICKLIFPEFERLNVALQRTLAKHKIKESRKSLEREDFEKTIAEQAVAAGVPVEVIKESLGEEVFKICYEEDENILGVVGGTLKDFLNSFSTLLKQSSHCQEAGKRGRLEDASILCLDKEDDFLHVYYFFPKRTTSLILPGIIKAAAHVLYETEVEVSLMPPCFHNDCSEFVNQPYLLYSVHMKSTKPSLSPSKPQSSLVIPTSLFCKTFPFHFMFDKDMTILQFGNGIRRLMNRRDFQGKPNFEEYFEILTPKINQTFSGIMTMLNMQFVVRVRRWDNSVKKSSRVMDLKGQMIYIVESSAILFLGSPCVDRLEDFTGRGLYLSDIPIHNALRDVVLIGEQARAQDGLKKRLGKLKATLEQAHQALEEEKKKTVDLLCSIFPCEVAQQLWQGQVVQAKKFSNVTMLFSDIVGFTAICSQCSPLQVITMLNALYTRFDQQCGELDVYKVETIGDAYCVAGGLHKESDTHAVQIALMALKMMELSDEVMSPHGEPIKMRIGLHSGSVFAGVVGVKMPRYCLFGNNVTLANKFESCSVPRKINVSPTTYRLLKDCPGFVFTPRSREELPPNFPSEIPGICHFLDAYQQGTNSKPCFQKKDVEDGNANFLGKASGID
Briefly: Activity against guanylate cyclase (cGMP production, EIA). In kind it is biochemical. The settings on record: Sf9 lysate with human-derived guanylate cyclase, antagonistic activity vs 30 μM sodium nitroprusside, cGMP by EIA. As for the experimental part: Plasmid in which a human-derived guanylate cyclase is expressed was transfected to Sf9 insect cells, followed by proliferation and then lysis. The compound (1, 10, 30, 100, 300 μM) of the present invention dissolved in DMSO and a positive control, ODQ (1H-[1,2,4]oxadiazolo[4,3-a]quinoxalin-1-one, 0.5, 0.1, 0.05, 0.01, 0.005 μM) were added to each well, to which guanylate cyclase (the lysed solution) which is mixed in a modified Tris-HCl buffer was added until its final concentration became to 0.013 μg/ml. After incubating at 37° C. for 20 minutes, 1N HCl was added to end the reaction.
After removing the guanylate cyclase, an amount of cGMP produced from the reaction was subject to quantitative measurement using an EIA kit. The amount of cGMP increases as the guanylate cyclase converting GTP to cGMP is activated. The activation of the guanylate cyclase was calculated based on the assumption that the result of sodium nitroprusside (30 μM), an agonist of the guanylate cyclase was 100%. The antagonistic activity against the guanylate cyclase was calculated based on the assumption that the result when treated only with 30 μM of sodium nitroprusside was 100% compared to when treated with both sodium nitroprusside and a drug.

T3 sequence (O43193 whole entry): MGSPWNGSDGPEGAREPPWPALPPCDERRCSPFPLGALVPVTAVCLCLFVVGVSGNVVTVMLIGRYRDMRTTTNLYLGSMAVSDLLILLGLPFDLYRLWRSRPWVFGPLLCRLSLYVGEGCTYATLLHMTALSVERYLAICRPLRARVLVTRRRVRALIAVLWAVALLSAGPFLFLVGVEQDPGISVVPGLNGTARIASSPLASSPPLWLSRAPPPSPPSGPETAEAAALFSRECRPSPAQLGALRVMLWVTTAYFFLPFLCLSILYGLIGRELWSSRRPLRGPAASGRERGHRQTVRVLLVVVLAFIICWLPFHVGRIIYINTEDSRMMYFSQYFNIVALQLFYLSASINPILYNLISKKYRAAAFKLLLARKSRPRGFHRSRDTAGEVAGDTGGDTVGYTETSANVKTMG
T2 sequence (P34972 whole entry): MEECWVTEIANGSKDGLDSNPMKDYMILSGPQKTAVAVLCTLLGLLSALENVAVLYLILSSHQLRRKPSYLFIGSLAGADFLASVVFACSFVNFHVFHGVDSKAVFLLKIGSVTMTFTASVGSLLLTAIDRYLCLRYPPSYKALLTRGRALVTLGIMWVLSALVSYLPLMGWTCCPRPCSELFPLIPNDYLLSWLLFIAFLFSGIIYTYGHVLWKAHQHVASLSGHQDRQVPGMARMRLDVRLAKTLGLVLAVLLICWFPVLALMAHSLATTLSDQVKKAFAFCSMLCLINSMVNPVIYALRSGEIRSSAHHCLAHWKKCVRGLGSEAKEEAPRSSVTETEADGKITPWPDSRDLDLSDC
T1 sequence (Q01726 whole entry): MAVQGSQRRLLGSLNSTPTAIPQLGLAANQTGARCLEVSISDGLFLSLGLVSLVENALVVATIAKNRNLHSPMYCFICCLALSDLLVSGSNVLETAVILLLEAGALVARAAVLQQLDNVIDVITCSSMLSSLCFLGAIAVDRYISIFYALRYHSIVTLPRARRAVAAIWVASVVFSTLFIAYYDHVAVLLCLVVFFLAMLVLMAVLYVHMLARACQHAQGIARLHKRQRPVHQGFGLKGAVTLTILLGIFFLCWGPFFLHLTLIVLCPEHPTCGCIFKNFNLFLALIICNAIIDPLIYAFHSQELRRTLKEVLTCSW

The IC50 is the concentration that gives 50% inhibition. Read a low IC50 as greater potency. `C/C=C/C#CC#C/C=C/CCC(O)CCOC(C)=O` (stereo not shown) [(6E,12E)-3-hydroxytetradeca-6,12-dien-8,10-diyn-1-yl acetate]: the “suppressing effect against visceral hypersensitivity relative to the vehicle group (AWR score / AUC, FIG. 2)” value in assay [1] (100 mg/kg orally, Student's t-test) is reported as “significant suppressing effect against visceral hypersensitivity”. The “suppressing effect against visceral pain (AWR score / AUC, FIG. 2)” value in assay [1] (10, 30 and 100 mg/kg orally) is listed as “suppressing effect against visceral pain occurred in visceral hypersensitivity as its concentration increased”. Also, the concentration for half-maximal inhibition (IC50) in assay [2] came out at 133 µM; in assay [3], 45 µM; in assay [4] it was 29.1 µM; in assay [5], 30.6 µM; in assay [6] it was 18.9 µM.
